Laboratory results published in patent US10246469B2, “Biaryl kinase inhibitors” (BRISTOL-MYERS SQUIBB COMPANY, priority 2015, dated 2019).

Target: T1, GST-Xa-hAAK1 (Homo sapiens, UniProt Q2M2I8)
T1 construct: GST (N); Factor Xa cleavage site (Xa) (internal); made in house
Assay: AAK1 Kinase Assay
Assay type: biochemical
Settings: bacterially expressed GST-Xa-hAAK1 3.5 nM; ATP 22 μM; fluoresceinated peptide 1.5 μM; 3 hours at room temperature; Caliper LabChip 3000
Outline: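 Bacterially expressed GST-Xa-hAAK1 (3.5 nM) phosphorylated 1.5 μM 5-FAM peptide with 22 μM ATP in Tris pH 7.4, MgCl2, DTT, 1.6% DMSO, 3 h at room temperature. EDTA-stopped; product separated electrophoretically on Caliper LabChip. IC50 from eleven concentrations by non-linear regression.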

T1 sequence (Q2M2I8 whole entry): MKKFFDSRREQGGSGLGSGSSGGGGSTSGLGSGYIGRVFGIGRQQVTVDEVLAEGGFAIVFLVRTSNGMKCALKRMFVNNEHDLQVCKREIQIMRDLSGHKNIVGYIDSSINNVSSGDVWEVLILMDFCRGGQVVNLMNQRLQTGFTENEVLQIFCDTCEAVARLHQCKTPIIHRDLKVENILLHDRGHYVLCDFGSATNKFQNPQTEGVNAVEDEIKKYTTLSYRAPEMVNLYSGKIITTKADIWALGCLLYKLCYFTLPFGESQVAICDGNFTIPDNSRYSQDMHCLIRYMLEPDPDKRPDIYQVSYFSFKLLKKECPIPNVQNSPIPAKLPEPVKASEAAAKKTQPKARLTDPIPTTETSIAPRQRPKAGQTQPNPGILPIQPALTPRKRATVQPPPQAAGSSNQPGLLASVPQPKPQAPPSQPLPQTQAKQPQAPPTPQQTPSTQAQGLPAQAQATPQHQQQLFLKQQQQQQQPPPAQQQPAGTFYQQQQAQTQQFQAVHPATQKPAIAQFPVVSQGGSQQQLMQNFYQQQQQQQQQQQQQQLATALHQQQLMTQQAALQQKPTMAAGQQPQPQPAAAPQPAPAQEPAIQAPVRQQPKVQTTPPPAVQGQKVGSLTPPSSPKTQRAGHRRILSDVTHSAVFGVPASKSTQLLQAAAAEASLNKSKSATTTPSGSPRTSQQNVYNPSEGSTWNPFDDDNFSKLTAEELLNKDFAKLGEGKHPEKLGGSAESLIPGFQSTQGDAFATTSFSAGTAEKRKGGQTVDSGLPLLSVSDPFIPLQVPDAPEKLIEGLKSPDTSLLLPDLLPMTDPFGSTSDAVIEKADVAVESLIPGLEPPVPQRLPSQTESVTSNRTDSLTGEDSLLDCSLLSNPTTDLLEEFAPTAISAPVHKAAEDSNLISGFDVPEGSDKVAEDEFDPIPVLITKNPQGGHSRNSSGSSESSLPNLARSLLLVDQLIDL

| SMILES | IC50 |
| --- | --- |
| CC(C)C[C@](C)(N)COc1ccc(-c2ccnc(NC(=O)C3CC3)c2)cc1C(F)(F)F [Example 389, (S)—N-(4-(4-((2-amino-2,4-dimethylpentyl)oxy)-3-(trifluoromethyl)phenyl)pyridin-2-yl)cyclopropanecarboxamide] | 0.3 nM |
| CC(C)C[C@](C)(N)COc1ccc(-c2ccnc(NC(=O)C3CCC3)c2)cc1C(F)(F)F [Example 390, (S)—N-(4-(4-((2-amino-2,4-dimethylpentyl)oxy)-3-(trifluoromethyl)phenyl)pyridin-2-yl)cyclobutanecarboxamide] | 0.5 nM |
| CC(C)C[C@](C)(N)COc1ccc(-c2ccnc(NC(=O)C3CCCC3)c2)cc1C(F)(F)F [Example 391, (S)—N-(4-(4-((2-amino-2,4-dimethylpentyl)oxy)-3-(trifluoromethyl)phenyl)pyridin-2-yl)cyclopentanecarboxamide] | 0.5 nM |
| CC(C)C[C@](C)(N)COc1ccc(-c2ccnc(NC(=O)CC3CCCC3)c2)cc1C(F)(F)F [Example 392, (S)—N-(4-(4-((2-amino-2,4-dimethylpentyl)oxy)-3-(trifluoromethyl)phenyl)pyridin-2-yl)-2-cyclopentylacetamide] | 0.7 nM |
| CC(C)C[C@](C)(N)COc1ccc(-c2ccnc(NC(=O)CCC3CCCC3)c2)cc1C(F)(F)F [Example 393, (S)—N-(4-(4-((2-amino-2,4-dimethylpentyl)oxy)-3-(trifluoromethyl)phenyl)pyridin-2-yl)-3-cyclopentylpropanamide] | 7.3 nM |
| CC(C)C[C@](C)(N)COc1ccc(-c2ccnc(NC(=O)CC3CCCCC3)c2)cc1C(F)(F)F [Example 394, (S)—N-(4-(4-((2-amino-2,4-dimethylpentyl)oxy)-3-(trifluoromethyl)phenyl)pyridin-2-yl)-2-cyclohexylacetamide] | 2 nM |

Now from value to compound:

| IC50 | SMILES |
| --- | --- |
| 1 nM | CC(C)C[C@](C)(N)COc1ccc(-c2ccnc(NC(=O)C3CCCO3)c2)cc1C(F)(F)F (stereo partly drawn) [Example 398, N-(4-(4-(((S)-2-amino-2,4-dimethylpentyl)oxy)-3-(trifluoromethyl)phenyl)pyridin-2-yl)tetrahydrofuran-2-carboxamide] |
| 5.9 nM | CC(C)C[C@](C)(N)COc1ccc(-c2ccnc(NC(=O)CC3CCCCCC3)c2)cc1C(F)(F)F [Example 399, (S)—N-(4-(4-((2-amino-2,4-dimethylpentyl)oxy)-3-(trifluoromethyl)phenyl)pyridin-2-yl)-2-cycloheptylacetamide] |
| 0.3 nM | CC(C)C[C@](C)(N)COc1ccc(-c2ccnc(NC(=O)c3ccco3)c2)cc1C(F)(F)F [Example 400, (S)—N-(4-(4-((2-amino-2,4-dimethylpentyl)oxy)-3-(trifluoromethyl)phenyl)pyridin-2-yl)furan-2-carboxamide] |
| 0.6 nM | CC(C)C[C@](C)(N)COc1ccc(-c2ccnc(NC(=O)c3ccc(Br)o3)c2)cc1C(F)(F)F [Example 401, (S)—N-(4-(4-((2-amino-2,4-dimethylpentyl)oxy)-3-(trifluoromethyl)phenyl)pyridin-2-yl)-5-bromofuran-2-carboxamide] |
| 0.5 nM | CC(=O)NCC(=O)Nc1cc(-c2ccc(OC[C@@](C)(N)CC(C)C)c(C(F)(F)F)c2)ccn1 [Example 402, (S)-2-acetamido-N-(4-(4-((2-amino-2,4-dimethylpentyl)oxy)-3-(trifluoromethyl)phenyl)pyridin-2-yl)acetamide] |
| 0.5 nM | CC(C)C[C@](C)(N)COc1ccc(-c2ccnc(NC(=O)c3cccs3)c2)cc1C(F)(F)F [Example 403, (S)—N-(4-(4-((2-amino-2,4-dimethylpentyl)oxy)-3-(trifluoromethyl)phenyl)pyridin-2-yl)thiophene-2-carboxamide] |
| 0.7 nM | CC(C)C[C@](C)(N)COc1ccc(-c2ccnc(NC(=O)c3cnccn3)c2)cc1C(F)(F)F [Example 404, (S)—N-(4-(4-((2-amino-2,4-dimethylpentyl)oxy)-3-(trifluoromethyl)phenyl)pyridin-2-yl)pyrazine-2-carboxamide] |
